Source: ChEMBL document CHEMBL3046786, “Synthesis of piperazinyl benzothiazole/benzoxazole derivatives coupled with 1,3,4-oxadiazole-2-thiol: novel hybrid heterocycles as anticancer agents” (Med Chem Res, 2013)

What was measured:
Format in all cases: functional, cell-based
A-431 = assay: Anticancer activity against Homo sapiens (human) A431 cells assessed as inhibition of cell viability after 72 hr by MTT assay; conditions: A-431, 72 h
HepG2 = assay: Anticancer activity against Homo sapiens (human) HepG2 cells assessed as inhibition of cell viability after 72 hr by MTT assay; conditions: HepG2, 72 h
MCF7 = assay: Anticancer activity against Homo sapiens (human) MCF7 cells assessed as inhibition of cell viability after 72 hr by MTT assay; conditions: MCF7, 72 h
HeLa = assay: Anticancer activity against Homo sapiens (human) HeLa cells assessed as inhibition of cell viability after 72 hr by MTT assay
A549 = assay: Anticancer activity against Homo sapiens (human) A549 cells assessed as inhibition of cell viability after 72 hr by MTT assay; conditions: A549, 72 h

Row | Compound | IC50 (A-431) [µM] | IC50 (HepG2) [µM] | IC50 (MCF7) [µM] | IC50 (HeLa) [µM] | IC50 (A549) [µM]
1 | c1ccc(-c2nnc(SCCCN3CCN(c4nc5ccccc5s4)CC3)o2)cc1 | 93.4 | 217 | 76.9 | 229 | 257
2 | Fc1ccc(-c2nnc(SCCCN3CCN(c4nc5ccccc5o4)CC3)o2)cc1 | 136 | 83.8 | 52.3 | 196 | 75.7
3 | CC(C)(C)Oc1ccc(-c2nnc(SCCCN3CCN(c4nc5ccccc5o4)CC3)o2)cc1 | 65.8 | 121 | 94.9 | 269 | 263
4 | Oc1ccc(-c2nnc(SCCCN3CCN(c4nc5ccccc5o4)CC3)o2)cc1 | 116 | 502 | 260 | 99.5 | 181
5 | Clc1ccc(-c2nnc(SCCCN3CCN(c4nc5ccccc5s4)CC3)o2)cc1 | 69.2 | 87.7 | 116 | 177 | 110
6 | Fc1ccc(-c2nnc(SCCCN3CCN(c4nc5ccccc5s4)CC3)o2)cc1 | 67 | 234 | 84.1 | 134 | 71.7
7 | CC(C)(C)Oc1ccc(-c2nnc(SCCCN3CCN(c4nc5ccccc5s4)CC3)o2)cc1 | 67 | 202 | 89.3 | 217 | 71.6
8 | Cc1ccc(-c2nnc(SCCCN3CCN(c4nc5ccccc5o4)CC3)o2)cc1 | 100 | 154 | 60.4 | 133 | 106
9 | Clc1ccc(-c2nnc(SCCCN3CCN(c4nc5ccccc5o4)CC3)o2)cc1 | 89.6 | 121 | 99.7 | 101 | 127

Stronger by IC50 (A-431), values ahead:

Row | IC50 (A-431) [µM] | IC50 (HepG2) [µM] | IC50 (MCF7) [µM] | IC50 (HeLa) [µM] | IC50 (A549) [µM] | Compound
10 | 61.6 | 96.7 | 107 | 179 | 53.9 | Cc1ccc(-c2nnc(SCCCN3CCN(c4nc5ccccc5s4)CC3)o2)cc1
11 | 57.8 | 67.5 | 115 | 187 | 123 | Brc1ccc(-c2nnc(SCCCN3CCN(c4nc5ccccc5o4)CC3)o2)cc1
12 | 57.6 | 102 | 117 | 67 | 108 | c1ccc(-c2nnc(SCCCN3CCN(c4nc5ccccc5o4)CC3)o2)cc1
13 | 56.2 | 134 | 171 | 165 | 90.3 | COc1ccc(-c2nnc(SCCCN3CCN(c4nc5ccccc5s4)CC3)o2)cc1
14 | 55.9 | 325 | 39 | 78.1 | 88.7 | O=C(NCc1nnc(SCCCN2CCN(c3nc4ccccc4s3)CC2)o1)c1ccccc1
15 | 54.7 | 364 | 81.9 | 139 | 62.1 | Oc1ccc(-c2nnc(SCCCN3CCN(c4nc5ccccc5s4)CC3)o2)cc1
16 | 52.7 | 66.1 | 52.8 | 210 | 93.5 | COc1ccc(-c2nnc(SCCCN3CCN(c4nc5ccccc5o4)CC3)o2)cc1
17 | 51.6 | 103 | 96.3 | 243 | 62.5 | Brc1ccc(-c2nnc(SCCCN3CCN(c4nc5ccccc5s4)CC3)o2)cc1
18 | 46.9 | 67.2 | 90.1 | 114 | 90.8 | O=[N+]([O-])c1ccc(-c2nnc(SCCCN3CCN(c4nc5ccccc5o4)CC3)o2)cc1
19 | 46.5 | 93.3 | 118 | 97.8 | 96.6 | O=[N+]([O-])c1ccc(-c2nnc(SCCCN3CCN(c4nc5ccccc5s4)CC3)o2)cc1
20 | 36.9 | 88.9 | 52.7 | 63.9 | 102 | O=C(NCc1nnc(SCCCN2CCN(c3nc4ccccc4o3)CC2)o1)c1ccccc1
21 | 22 | 16 | 26 |  | 22 | COc1cc(/C=C/C(=O)CC(=O)/C=C/c2ccc(O)c(OC)c2)ccc1O [CURCUMIN]
